Experimental data taken from PubChem BioAssay AID2060496 (Molecular Pharmacology Branch, DTP, NCI, 2025).

Test system: 276233-004-R-J1-PDC complex spheroid viability
Test: Anticancer human tumor 276233-004-R-J1-PDC patient-derived colon adenocarcinoma cell line growth inhibition [GQUAD]
Conditions: for IC50: curve of first compound; for viability, T/C: stronger effect = lower value
Outline: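 Viability of tumor cells grown as complex spheroids with endothelial and stromal cells, exposed to drug combinations. Top concentration at or near clinical Cmax (else 10 microM), diluted in half-log increments.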

[1] = second compound 0.0316 µM, first compound 0.0316 µM
[2] = second compound 0.0316 µM, first compound 0.1 µM
[3] = second compound 0.0316 µM, first compound 0.316 µM
[4] = second compound 0.0316 µM, first compound 1 µM
[5] = second compound 0.0316 µM, first compound 3.16 µM
[6] = second compound 0.0316 µM, first compound 10 µM
[7] = second compound 0.1 µM, first compound 0.0316 µM
[8] = second compound 0.1 µM, first compound 0.1 µM
[9] = second compound 0.1 µM, first compound 0.316 µM
[10] = second compound 0.1 µM, first compound 1 µM
[11] = second compound 0.1 µM, first compound 3.16 µM
[12] = second compound 0.1 µM, first compound 10 µM
[13] = second compound 0.316 µM, first compound 0.0316 µM
[14] = second compound 0.316 µM, first compound 0.1 µM
[15] = second compound 0.316 µM, first compound 0.316 µM
[16] = second compound 0.316 µM, first compound 1 µM
[17] = second compound 0.316 µM, first compound 3.16 µM
[18] = second compound 0.316 µM, first compound 10 µM
[19] = second compound 1 µM, first compound 0.0316 µM
[20] = second compound 1 µM, first compound 0.1 µM
[21] = second compound 1 µM, first compound 0.316 µM
[22] = second compound 1 µM, first compound 1 µM
[23] = second compound 1 µM, first compound 3.16 µM
[24] = second compound 1 µM, first compound 10 µM
[25] = second compound 3.16 µM, first compound 0.0316 µM
[26] = second compound 3.16 µM, first compound 0.1 µM
[27] = second compound 3.16 µM, first compound 0.316 µM
[28] = second compound 3.16 µM, first compound 1 µM
[29] = second compound 3.16 µM, first compound 3.16 µM
[30] = second compound 3.16 µM, first compound 10 µM
[31] = second compound 10 µM, first compound 0.0316 µM
[32] = second compound 10 µM, first compound 0.1 µM
[33] = second compound 10 µM, first compound 0.316 µM
[34] = second compound 10 µM, first compound 1 µM
[35] = second compound 10 µM, first compound 3.16 µM
[36] = second compound 10 µM, first compound 10 µM
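Note: spheroids exposed to drugs for seven days.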
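Throughout, for viability, T/C: 100% = DMSO vehicle control viability.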

Compound: COc1ccc([C@@H](O)c2cc(-c3ncnc4cc(N5CCOCC5)ccc34)c(F)cc2Cl)nn1 + CN(C)c1ccc(Nc2c3ccc(NC(=O)CCN4CCCC4)cc3nc3cc(NC(=O)CCN4CCCC4)ccc23)cc1
- IC50 (second compound 0.0316 µM): > 10 µM
- IC50 (second compound 0.1 µM): 5.54 µM
- IC50 (second compound 0.316 µM): 0.612 µM
- IC50 (second compound 1 µM): 3.46 µM
- IC50 (second compound 3.16 µM): 0.127 µM
- IC50 (second compound 10 µM): 0.134 µM
- viability, T/C [1]: 88.8%
- viability, T/C [2]: 94.6%
- viability, T/C [3]: 87.7%
- viability, T/C [4]: 74.5%
- viability, T/C [5]: 61%
- viability, T/C [6]: 54.2%
- viability, T/C [7]: 79.4%
- viability, T/C [8]: 79.3%
- viability, T/C [9]: 76.3%
- viability, T/C [10]: 70.2%
- viability, T/C [11]: 52.9%
- viability, T/C [12]: 46.8%
- viability, T/C [13]: 78%
- viability, T/C [14]: 63.7%
- viability, T/C [15]: 52%
- viability, T/C [16]: 49.1%
- viability, T/C [17]: 43.7%
- viability, T/C [18]: 39.1%
- viability, T/C [19]: 56.5%
- viability, T/C [20]: 49.5%
- viability, T/C [21]: 62.5%
- viability, T/C [22]: 48.8%
- viability, T/C [23]: 52.4%
- viability, T/C [24]: 38.2%
- viability, T/C [25]: 47.4%
- viability, T/C [26]: 54.2%
- viability, T/C [27]: 47.6%
- viability, T/C [28]: 42.2%
- viability, T/C [29]: 39%
- viability, T/C [30]: 40.1%
- viability, T/C [31]: 48.3%
- viability, T/C [32]: 56.2%
- viability, T/C [33]: 37.6%
- viability, T/C [34]: 41.8%
- viability, T/C [35]: 46.8%
- viability, T/C [36]: 47.5%

Compound: Cc1cccc(N(C)C(=O)C2C(O)CCN2c2nc(C)cc(C(F)(F)F)c2C#N)c1 (centres undefined) + Cc1[nH]c2ccc(F)cc2c1-c1nc2c3cccnc3c3ncccc3c2[nH]1
- IC50 (second compound 0.0316 µM): > 10 µM
- IC50 (second compound 0.1 µM): > 10 µM
- IC50 (second compound 0.316 µM): > 10 µM
- IC50 (second compound 1 µM): > 10 µM
- IC50 (second compound 3.16 µM): > 10 µM
- IC50 (second compound 10 µM): > 10 µM
- viability, T/C [1]: 110%
- viability, T/C [2]: 83.8%
- viability, T/C [3]: 87.2%
- viability, T/C [4]: 87.4%
- viability, T/C [5]: 117%
- viability, T/C [6]: 114%
- viability, T/C [7]: 88.2%
- viability, T/C [8]: 95.6%
- viability, T/C [9]: 86.4%
- viability, T/C [10]: 95.3%
- viability, T/C [11]: 96.6%
- viability, T/C [12]: 97.8%
- viability, T/C [13]: 74.6%
- viability, T/C [14]: 78%
- viability, T/C [15]: 103%
- viability, T/C [16]: 97.8%
- viability, T/C [17]: 96%
- viability, T/C [18]: 96.8%
- viability, T/C [19]: 77.4%
- viability, T/C [20]: 85.2%
- viability, T/C [21]: 71.6%
- viability, T/C [22]: 79.2%
- viability, T/C [23]: 90.5%
- viability, T/C [24]: 85.2%
- viability, T/C [25]: 60.5%
- viability, T/C [26]: 56.8%
- viability, T/C [27]: 61.6%
- viability, T/C [28]: 59.6%
- viability, T/C [29]: 59.8%
- viability, T/C [30]: 62.6%
- viability, T/C [31]: 53.7%
- viability, T/C [32]: 58.4%
- viability, T/C [33]: 58.6%
- viability, T/C [34]: 52.1%
- viability, T/C [35]: 58%
- viability, T/C [36]: 64.7%
